Reference: the METLIN SMRT retention time set (Domingo-Almenara et al. 2019)

Experiment: gradient 5% acetonitrile 3 min, to 50% in 2 min, to 85% in 15 min, held 3 min, 100 µL/min
Conditions: column: Zorbax Extend-C18 2.1 x 50 mm; eluents: water / acetonitrile, 0.1% formic acid
Method in brief: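 Retention time was recorded from adduct peaks, which were picked computationally and each inspected manually. Pure standards ran in mixtures of ~100 molecules on HPLC coupled to a quadrupole time-of-flight mass spectrometer, in positive and negative ionization mode, through a Zorbax Extend-C18 column (2.1 × 50 mm, 1.8 μm) at 100 μL/min. Eluents were water and acetonitrile, each with 0.1% formic acid.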

RP-LC retention time	SMILES
977 s	Cc1cc(S(=O)(=O)N2CCC(N(C(=O)C3CC3)C3CCOCC3)CC2)ccc1Cl
1030 s	COC1CN(c2cccc(F)c2)C12CCN(C(=O)NC1CCCCC1)CC2 (centres undefined)
1070 s	COC(=O)c1sccc1NC(=O)Cn1c(C)cc(C)c(-c2nc(-c3ccc(F)cc3)no2)c1=O
906 s	Cc1nn2c(CNS(=O)(=O)c3ccc(F)c(F)c3)c(-c3ccccc3)nc2s1
842 s	CCOC(=O)c1c(C)c(CCC(=O)NCc2ccc(C)o2)n(C)c1C
717 s	O=C(Cn1cnc2nc(N3CCCC(C(=O)NC4CC4)C3)sc2c1=O)Nc1cc(F)cc(F)c1 (centres undefined)
665 s	CCOCCCNC(=O)C1CCCN(c2cc(=O)n(C)c(=O)n2C)C1 (centres undefined)
910 s	COC(=O)CC1=CC(SCC(=O)Nc2ccc(Cl)cc2F)=Nc2ccccc2N1
1260 s	CCCCc1ccc(NC(=O)Cn2cccc2-c2nc(-c3ccc4c(c3)OCO4)no2)cc1
998 s	O=C(Nc1nc(-c2ccccc2)cs1)c1cncc(Br)c1
747 s	CCn1ccc2sc(C)c(C(=O)NCC(C)C)c2c1=O
820 s	O=C(NCCc1ccccc1)N1C[C@@H]2C[C@H]1C[C@@H]2NS(=O)(=O)c1ccccc1
932 s	COC(=O)c1ccc2nc(NC(=O)C3CCCCC3)sc2c1
1060 s	CCOc1ccc(-c2cc3c(=O)n(Cc4nc(-c5ccc(OC)c(OC)c5)no4)ncn3n2)cc1
930 s	CCCCOc1ccc(CNC(=O)C2CCCN(C(=O)c3[nH]c(C)c(C(=O)OC)c3C)C2)cc1 (centres undefined)
895 s	CCCCN(C(=O)c1noc2c1CC(C)CC2)C1CCN(C(C)=O)CC1 (centres undefined)
1260 s	CCc1ccc(-c2csc(NC(=O)c3ccc(S(=O)(=O)N4CCCCC4)cc3)n2)cc1
710 s	Cc1ccc(F)c(NS(=O)(=O)c2cc(-c3[nH]ncc3C(=O)N3CCCC3)oc2C)c1
594 s	c1cc(-c2nc(-c3ccnc(N4CCCC4)c3)no2)ccn1
927 s	O=C(NCCc1c[nH]c2ccc(Cl)cc12)c1cc2n(n1)CCCN(Cc1ccc(F)cc1)C2=O
940 s	Cc1ccc(-n2nc(CO)c(C(=O)NCc3ccc4c(c3)OCO4)n2)cc1
1090 s	Cc1ccccc1-c1noc(C2CC(=O)N(c3ccc(Cl)cc3)C2)n1 (centres undefined)
859 s	COc1ccc(CNC(=O)C2(c3ccc(NS(C)(=O)=O)cc3)CCCCC2)cc1

RP-LC retention time	SMILES
996 s	CCOc1ccc(-c2csc(C)n2)cc1S(=O)(=O)NCc1ccccc1
1020 s	CCCCn1cc(S(=O)(=O)Nc2ccc(Cl)cc2)c2cccnc21
574 s	CCN1CCN(c2nccc(-c3cnc4nc(-c5cccnc5)nn4c3C)n2)CC1
654 s	Cc1noc(C)c1S(=O)(=O)N1CCC(C(C)C(=O)N2CCN(C3CCCCC3)CC2)CC1 (centres undefined)
1060 s	O=c1ccc(-c2ccccc2)nn1CCc1nc(-c2ccc(Br)cc2)no1
1020 s	O=C(O)c1ccccc1Nc1cccc2c1C(=O)c1cccc(Nc3ccccc3C(=O)O)c1C2=O
670 s	CCCNC(=O)C1CCN(c2ccc(SCC(=O)Nc3ccccc3Br)nn2)CC1
1010 s	O=C(Cc1csc2nc(-c3cccc(Br)c3)cn12)N1CCN(c2ccccc2)CC1
1010 s	Cc1c(Cl)cccc1N1C(=O)CN(S(C)(=O)=O)CC1(C)C(=O)NC1CCCCCCC1 (centres undefined)
731 s	CC1CCN(CCCNc2nc3ccncc3n(Cc3ccccc3)c2=O)CC1
630 s	O=C(NCc1ccc(Br)cc1)c1ccc(=O)n(CCN2CCCC2)c1
705 s	COc1ccc(-c2cnc(SCC(=O)Nc3cc(C)on3)n2Cc2ccco2)cc1
622 s	COc1ccc(OC)c(-c2ccc(=O)n(Cc3ccccn3)n2)c1
586 s	CC1(C)Cc2cccc(OCc3ccc(C(=O)NCCN4CCOCC4)cc3)c2O1
932 s	COc1ccccc1CNC(=O)Cn1c(=O)cc(-c2nc(C3CC3)no2)c2ccccc21
856 s	CCCc1cc(C2CCCN2C(=O)NCc2cccc(OC)c2)no1 (centres undefined)
699 s	Cc1noc(-c2ccc(-n3ncc(C(=O)N4CCCC4)c3C)nc2)n1
647 s	CSc1nsc(NN)n1
926 s	CCc1noc(NC(C)=O)c1-c1ccc(C)c(S(=O)(=O)N2CCCCCC2)c1
722 s	CNc1nc(NC(C)C)nc(-n2cnc(SC)n2)n1
785 s	COCCN1C(=O)c2ccccc2C(C(=O)NCc2ccc(OC)cc2)C12CCCC2 (centres undefined)
711 s	O=C(NC1CC1)C1CCc2sc(C(=O)N3CCCCC3)cc2C1 (centres undefined)
762 s	OCc1ncc(-c2ccccc2)s1

RP-LC retention time	SMILES
1140 s	COc1cccc(-c2nc(-c3cn(-c4cccc(Cl)c4)nn3)no2)c1
715 s	CC1(C)Cc2cccc(OCC(=O)NCC3CCN(S(C)(=O)=O)CC3)c2O1
994 s	O=S(=O)(c1ccc(Cl)cc1)N1CCC(c2nc(-c3cccc(-c4ccn[nH]4)c3)no2)CC1
730 s	CC1(C(=O)Nc2ccc(F)c(Cl)c2)Oc2cccnc2NC1=O (centres undefined)
551 s	COc1ccccc1NC(=O)N1CCC(c2nc3ccncc3n2C(C)C)C1 (centres undefined)
1020 s	Cc1nn(C)c2nc(OC(C)C(=O)NCc3ccccc3Cl)cc(C(F)(F)F)c12 (centres undefined)
646 s	O=C1CCN(C(=O)CC2CCCCC2)CCCOCCN1
1300 s	Cc1sc(-c2cc(C(F)(F)F)on2)cc1S(=O)(=O)N1CCCc2ccccc21
958 s	Cn1cc2c3c(cccc31)CN(C(=O)c1ccc(F)cc1Cl)CC2
909 s	CCN1C(=O)COc2ccc(-c3nc(NC(=O)C(C)C)sc3C)cc21
1000 s	Cc1cccc(OCc2nc(CCN(C)C(=O)Nc3cc(F)ccc3F)no2)c1
537 s	O=C(O)C1CCCN(c2cc(-n3ccnc3)ncn2)C1 (centres undefined)
713 s	CCCC(NC(=O)Cc1ccccc1Cl)C(=O)Nc1nc2ccccc2[nH]1 (centres undefined)
607 s	O=C(c1ccco1)N1CCN(C(=O)C2CCN(c3ccc(N4CCCCC4)nn3)CC2)CC1
741 s	O=C(Cc1nnc2cc(-c3nc(C4CC4)no3)ccn12)NC1CCCCCC1
1020 s	CC(C)c1noc(-c2cc(=O)n(CC(=O)NCc3ccc(Cl)cc3)c3ccccc23)n1
1060 s	O=c1ccc(-c2ccc(F)cc2)nn1CCc1nc(-c2ccc(Cl)cc2)no1
927 s	O=C(O)c1cc2nc(-c3ccc(Cl)cc3)cc(C(F)(F)F)n2n1
902 s	O=C(Nc1nnc(-c2cc3ccccc3o2)o1)c1ccc(Cl)s1
1400 s	Cc1ccc(N2CCN(c3nccn4nc(-c5ccc(Cl)cc5)cc34)CC2)cc1
1040 s	CCn1cc(-c2ccc(C)cc2)cc1C(=O)NC(C)C
680 s	Cc1cc(C)cc(NC(=O)N2CCCC(Cn3cnc4cccnc43)C2)c1 (centres undefined)
880 s	COc1ccc(S(=O)(=O)N2CCCC(C(=O)NCCCO)C2)cc1OC (centres undefined)

RP-LC retention time	SMILES
759 s	CCOC(=O)c1c(C)[nH]c(C(=O)N2CCCC(C(=O)NC3CCCC3)C2)c1C (centres undefined)
684 s	CCOC(=O)c1cnc2nc(C)ccc2c1Nc1ccc(F)c(C#N)c1
913 s	CC(=O)Nc1cccc(Oc2nc(C)nc3sc4c(c23)CCCC4)c1
622 s	COCC(=O)NC/C=C/c1ccc2ncnc(Nc3ccc(Oc4ccc(C)nc4)c(C)c3)c2c1
812 s	O=C(N1CCCC(c2nnc(-c3cccs3)o2)C1)C1(c2ccccc2)CCOCC1 (centres undefined)
780 s	Cc1nc2c(ccc3nc(NC(=O)CN4C(=O)c5ccccc5C4=O)sc32)s1
726 s	O=C(c1ccsc1)N1CCC(c2nc(-c3ccc(F)cc3)n[nH]2)CC1
816 s	CC(C)(C)Sc1ccc2nn(CC(=O)Nc3ccccc3C(F)(F)F)c(=O)n2n1
1130 s	COc1ccccc1-c1nc(Cn2nnc(-c3nc(-c4cccc(F)c4)no3)c2C)c(C)o1
742 s	Cc1nnc(N2CCCC(C(=O)NCc3cccs3)C2)c2nn(-c3ccc(Cl)cc3)c(C)c12 (centres undefined)
690 s	Cc1nn2c(S(=O)(=O)NCC3CC3)c(C)nc2s1
874 s	COc1ccc(-c2nnc(-c3cccnc3N3CCN(C(=O)c4ccc(C#N)cc4)CC3)o2)cc1
940 s	CC(C)Cn1cc(CCNC(=O)c2cccc(C(F)(F)F)c2)c2cccnc21
714 s	Cc1nn(C)c(C)c1CNC(=O)c1ccc2nc(Cc3ccccc3)oc2c1
680 s	Cc1cc(C(=O)N2CC(C(=O)NCCc3ccc(F)cc3)C2)no1
556 s	O=C1N(C2CCN(Cc3ccccn3)CC2)C(c2ccncc2)C12CCCCC2 (centres undefined)
1270 s	CC1(C)CCCC2(C)C3=C(CCC12)C(=O)OC3 (centres undefined)
958 s	CCn1c(=O)sc2cc(S(=O)(=O)N3CCC(C(=O)NCCC4=CCCCC4)CC3)ccc21
1200 s	CCc1cc(-c2csc(S(=O)(=O)N3CCN(c4cccc(Cl)c4)CC3)c2)on1
672 s	Cn1c(=O)n(Cc2ccccc2)c(=O)c2c1nc(N1CCNCC1)n2Cc1ccccc1
